Data on 13 compounds can be found in patent US9926297B2, “Bicyclic AZA compounds as muscarinic M1 receptor and/or M4 receptor agonists” (Heptares Therapeutics Limited, priority 2014, dated 2018).

Test [1] concerns the target T1, human muscarinic M1 receptor (Homo sapiens, UniProt P11229).
T1 sequence (P11229 1-460): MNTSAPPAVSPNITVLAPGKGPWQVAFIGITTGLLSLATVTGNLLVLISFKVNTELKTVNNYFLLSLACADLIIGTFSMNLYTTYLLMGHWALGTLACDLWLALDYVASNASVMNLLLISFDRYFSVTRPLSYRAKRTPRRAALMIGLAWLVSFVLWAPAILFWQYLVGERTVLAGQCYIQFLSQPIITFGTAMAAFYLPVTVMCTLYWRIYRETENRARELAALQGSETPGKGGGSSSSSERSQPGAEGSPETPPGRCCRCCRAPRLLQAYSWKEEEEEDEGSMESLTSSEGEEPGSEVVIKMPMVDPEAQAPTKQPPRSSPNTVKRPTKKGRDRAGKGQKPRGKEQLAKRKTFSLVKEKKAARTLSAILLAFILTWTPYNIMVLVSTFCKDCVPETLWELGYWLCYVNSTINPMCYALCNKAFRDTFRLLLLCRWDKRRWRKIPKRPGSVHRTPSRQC
As to the kind of experiment: Alphascreen Surefire phospho-ERK1/2 functional assay, M1. Type of test: cell-based. The following applies: for EC50: read-out: pEC50 M1 (converted); for Emax: CHO, read-out: % Emax cf. ACh, M1, CHO cells stably expressing human M1; for Emax / % Emax cf. ACh, M1: relative to ACh. Background: Alpha assays give light when donor and acceptor beads are brought close together.

In test [2] the target is T2, human muscarinic M4 receptor (Homo sapiens, UniProt P08173).
T2 construct: expressed in transfected cells
T2 sequence (P08173 1-479): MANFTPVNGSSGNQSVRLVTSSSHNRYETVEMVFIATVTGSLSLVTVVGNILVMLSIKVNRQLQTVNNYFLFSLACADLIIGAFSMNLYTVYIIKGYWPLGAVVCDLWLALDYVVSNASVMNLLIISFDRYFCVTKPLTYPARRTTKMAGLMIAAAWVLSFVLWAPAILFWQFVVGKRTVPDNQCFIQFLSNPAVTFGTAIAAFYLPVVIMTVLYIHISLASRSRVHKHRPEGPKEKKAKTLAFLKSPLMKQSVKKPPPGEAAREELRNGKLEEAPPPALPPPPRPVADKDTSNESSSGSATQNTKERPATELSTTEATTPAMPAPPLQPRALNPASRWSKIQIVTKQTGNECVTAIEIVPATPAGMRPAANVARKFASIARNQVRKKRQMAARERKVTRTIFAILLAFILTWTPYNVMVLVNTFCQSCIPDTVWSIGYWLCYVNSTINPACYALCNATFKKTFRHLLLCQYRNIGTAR
As to the kind of experiment: Alphascreen Surefire phospho-ERK1/2 functional assay, M4. The settings on record: for EC50: read-out: pEC50 M4 (converted); for Emax: CHO, read-out: % Emax cf. ACh, M4, CHO cells stably expressing human M4; for Emax / % Emax cf. ACh, M4: relative to ACh. Type of test: cell-based.

In test [3] the target is human muscarinic M3 receptor (Homo sapiens, UniProt P20309). As to the kind of experiment: Alphascreen Surefire phospho-ERK1/2 functional assay, M3. The following applies: for Emax: CHO, read-out: % Emax cf. ACh, M3, CHO cells stably expressing human M3; for Emax / % Emax cf. ACh, M3: relative to ACh; for EC50: pEC50 M3, CHO cells stably expressing human M3.
Chain of human muscarinic M3 receptor (P20309 whole entry): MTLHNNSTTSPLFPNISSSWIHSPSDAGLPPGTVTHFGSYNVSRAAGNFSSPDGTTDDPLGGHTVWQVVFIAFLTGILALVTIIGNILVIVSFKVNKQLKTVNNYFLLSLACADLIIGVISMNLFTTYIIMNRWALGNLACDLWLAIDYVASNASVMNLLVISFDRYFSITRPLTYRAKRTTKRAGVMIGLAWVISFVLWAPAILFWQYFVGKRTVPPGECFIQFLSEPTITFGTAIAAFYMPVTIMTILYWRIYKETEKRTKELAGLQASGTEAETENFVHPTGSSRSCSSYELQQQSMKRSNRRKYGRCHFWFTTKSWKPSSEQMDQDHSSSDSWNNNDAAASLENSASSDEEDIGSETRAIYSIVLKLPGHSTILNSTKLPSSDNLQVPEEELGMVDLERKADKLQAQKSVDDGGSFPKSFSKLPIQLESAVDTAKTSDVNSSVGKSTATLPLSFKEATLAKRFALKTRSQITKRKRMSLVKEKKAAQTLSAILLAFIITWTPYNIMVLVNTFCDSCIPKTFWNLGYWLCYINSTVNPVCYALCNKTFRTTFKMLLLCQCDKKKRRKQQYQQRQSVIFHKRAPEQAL
Test [4] deals with T3, human muscarinic M2 receptor (Homo sapiens, UniProt P08172).
T3 sequence (P08172 1-466): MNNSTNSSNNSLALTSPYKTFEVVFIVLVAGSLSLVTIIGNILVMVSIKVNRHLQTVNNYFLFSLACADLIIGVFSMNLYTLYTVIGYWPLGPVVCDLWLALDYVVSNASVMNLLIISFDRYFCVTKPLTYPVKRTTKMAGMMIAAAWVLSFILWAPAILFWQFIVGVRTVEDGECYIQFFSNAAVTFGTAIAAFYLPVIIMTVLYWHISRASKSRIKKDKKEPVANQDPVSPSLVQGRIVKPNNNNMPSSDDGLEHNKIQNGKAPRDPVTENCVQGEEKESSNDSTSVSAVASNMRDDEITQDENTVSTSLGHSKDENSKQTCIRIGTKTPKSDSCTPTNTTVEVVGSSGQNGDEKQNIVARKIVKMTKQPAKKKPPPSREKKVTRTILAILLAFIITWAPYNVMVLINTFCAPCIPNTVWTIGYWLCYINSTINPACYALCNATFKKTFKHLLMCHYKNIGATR
As to the kind of experiment: Alphascreen Surefire phospho-ERK1/2 functional assay, M2. The settings on record: for Emax: CHO, read-out: % Emax cf. ACh, M2, CHO cells stably expressing human M2.

Where [5] appears, read: CHO cells stably expressing human M1, phospho-ERK1/2, * = variable results.
Where [6] appears, read: CHO cells stably expressing human M4, phospho-ERK1/2, * = variable results.
Setting [7] is: phospho-ERK1/2, * = variable results.
Where [8] appears, read: CHO cells stably expressing human M3.
Where [9] appears, read: CHO cells stably expressing human M1.
The mark [10] stands for this setting: CHO cells stably expressing human M4.

For `CCOC(=O)N1CCC2(CC(N3CCC([C@@H]4CCCN4C(=O)CO)CC3)C2)C1` (single isomer, unassigned) [2-52 Isomer 2], the EC50 in test [1] (setting [5]) is 631 nM; in test [2] (setting [6]) it was 20 nM; in test [3] (setting [7]), greater than 20000 nM; in test [4] it was greater than 20000 nM. Besides, the Emax in test [1] amounted to 49%; in test [2], 85%; in test [3], 4%; in test [4] (relative to ACh) it was 4%.
On to `CCOC(=O)N1CCC2(CC(N3CCC(N4C(=O)OC[C@@H]4C(C)C)CC3)C2)C1` (single isomer, unassigned) [2-123 Isomer 2], for which the EC50 in test [1] (setting [5]) was 316 nM; in test [2] (setting [6]), 316 nM; in test [3] (setting [7]), greater than 20000 nM; in test [4], greater than 20000 nM. The Emax in test [1] stood at 114%; in test [2], 93%; in test [3], 29%; in test [4] (relative to ACh), 8%.
Turning to `CCOC(=O)N1CCC2(CC(N3CCC(C4CCCN(CC)C4=O)CC3)C2)C1` (single isomer, unassigned) [4-5 Isomer 2, ethyl 2-(1-ethyl-2-oxo-[3,4′-bipiperidin]-1′-yl)-6-azaspiro[3.4]octane-6-carboxylate], the EC50 in test [1] (setting [5]) was 501 nM; in test [2] (setting [6]), 15.8 nM; in test [3] (setting [7]), greater than 20000 nM; in test [4], greater than 20000 nM. Moreover, the Emax in test [1] was found to be 52%; in test [2], 60%; in test [3] it was 9%; in test [4] (relative to ACh) it was 9%.
For the compound `CCOC(=O)N1CCC2(CC(N3CCC(N4CC(F)(F)C[C@@H]4C(C)O)CC3)C2)C1` (single isomer, unassigned) [2-109 Isomer 2], the EC50 was 398 nM in test [1] (setting [5]), 15.8 nM in test [2] (setting [6]), 10000 nM in test [3] (setting [7]) and greater than 20000 nM in test [4]. The Emax worked out at 50% in test [1], 91% in test [2] and 9% in test [4] (relative to ACh). In addition, in test [3] (setting [8]), the “% Emax cf. ACh, M3” value was determined as 26%.
As for `CCOC(=O)N1CCC2(CC(N3CCC([C@@H]4CCCN4C(=O)NC4(C)CCC4)CC3)C2)C1` (single isomer, unassigned) [2-35 Isomer 2], the EC50 is 398 nM in test [1] (setting [5]), 15.8 nM in test [2] (setting [6]), greater than 20000 nM in test [3] (setting [7]) and greater than 20000 nM in test [4]. Moreover, the Emax in test [1] turned out to be 108%; in test [2], 92%; in test [3], 4%; in test [4] (relative to ACh), 1%.
Turning to `CCOC(=O)N1CCC2(CC(N3CCC([C@@H]4CCCN4Cc4ccccc4)CC3)C2)C1` (single isomer, unassigned) [2-74 Isomer 2], the EC50 is greater than 20000 nM in test [1] (setting [5]), 79.4 nM in test [2] (setting [6]), greater than 20000 nM in test [3] (setting [7]) and greater than 20000 nM in test [4]. For the same compound, the Emax is 18% in test [1], 54% in test [2], 8% in test [3] and 16% in test [4] (relative to ACh).
Turning to `CCOC(=O)N1CCC2(CC(N3CCC(C#N)(c4ccccn4)CC3)C2)C1` (single isomer, unassigned; isomer 2) [3-10 Isomer 2], in test [1] (setting [5]), the “pEC50 M1” value is 8.0. Further, the “% Emax cf. ACh, M1” value in test [1] (setting [9]) was found to be 90%. In addition, the “pEC50 M4” value in test [2] (setting [6]) is given as 8.9. In test [2] (setting [10]), the “% Emax cf. ACh, M4” value was determined as 103%. Moreover, the “pEC50 M3” value in test [3] (CHO cells stably expressing human M3, phospho-ERK1/2, * = variable results) is reported as less than 4.7. For the same compound, the “% Emax cf. ACh, M3” value in test [3] (setting [8]) worked out at 0%. The “pEC50 M2” value in test [4] (CHO cells stably expressing human M2, phospho-ERK1/2, * = variable results) turned out to be 7.0. Moreover, the “% Emax cf. ACh, M2” value in test [4] (CHO cells stably expressing human M2, relative to ACh) stood at 96%.
On to `CCOC(=O)N1CCC2(CC(N3CCC(C4CCCNC4=O)CC3)C2)C1` (single isomer, unassigned) [4-1 Isomer 4, ethyl 2-(2-oxo-3,4′-bipiperidin-1′-yl)-6-azaspiro[3.4]octane-6-carboxylate], for which the EC50 in test [1] (setting [5]) was 398 nM; in test [2] (setting [6]), 50.1 nM; in test [3] (setting [7]) it was greater than 20000 nM; in test [4] it was greater than 20000 nM. In test [1] (setting [9]), the “% Emax cf. ACh, M1” value worked out at 58%. Moreover, the “% Emax cf. ACh, M4” value in test [2] (setting [10]) is listed as 68%. For the same compound, the Emax in test [3] came to 5%; in test [4] (relative to ACh), 3%.
Regarding `CCOC(=O)N1CCC2(CC(N3CCC([C@@H]4CCCN4C(=O)N(C)Cc4ccccn4)CC3)C2)C1` (single isomer, unassigned) [2-63 Isomer 2], the EC50 in test [1] (setting [5]) was 251 nM; in test [2] (setting [6]) it was 63.1 nM; in test [3] (setting [7]) it was greater than 20000 nM; in test [4], greater than 20000 nM. Also, the Emax in test [1] was 34%; in test [2], 60%; in test [3] it was 4%; in test [4] (relative to ACh) it was 0%.
As for `CCOC(=O)N1CCC2(CC(N3CCC(C4C(=O)NCCC4C)CC3)C2)C1` (single isomer, unassigned) [4-3 Isomer 2, ethyl 2-(4-methyl-2-oxo-3,4′-bipiperidin-1′-yl)-6-azaspiro[3.4]octane-6-carboxylate], the EC50 is 158 nM in test [1] (setting [5]), 12.6 nM in test [2] (setting [6]), greater than 20000 nM in test [3] (setting [7]) and greater than 20000 nM in test [4]. For the same compound, the Emax in test [1] turned out to be 103%; in test [2] it was 88%; in test [3], 4%; in test [4] (relative to ACh), 9%.
As for `CCOC(=O)N1CCC2(CC(N3CCC(N4CCCC45CCOC5=O)CC3)C2)C1` (single isomer, unassigned) [2-96 Isomer 2, ethyl 2-[4-(6-oxo-7-oxa-1-azaspiro[4.4]non-1-yl)piperidin-1-yl]-6-azaspiro[3.4]octane-6-carboxylate], the EC50 in test [1] (setting [5]) is greater than 20000 nM; in test [2] (setting [6]), 126 nM; in test [3] (setting [7]) it was greater than 20000 nM; in test [4] it was greater than 20000 nM. The Emax in test [1] came out at 2%; in test [2], 63%; in test [3], 5%; in test [4] (relative to ACh), 1%.
Regarding `CCOC(=O)N1CCC2(CC(N3CCC([C@@H]4CCCN4C(=O)OCC(F)(F)F)CC3)C2)C1` (single isomer, unassigned) [2-48 Isomer 2], the EC50 was 316 nM in test [1] (setting [5]), 10 nM in test [2] (setting [6]), greater than 20000 nM in test [3] (setting [7]) and greater than 20000 nM in test [4]. Further, the Emax in test [1] was 34%; in test [2], 81%; in test [3], 5%; in test [4] (relative to ACh), 3%.
As for `CCOC(=O)N1CCC2(CC(N3CCC(c4ncco4)CC3)C2)C1` (single isomer, unassigned) [1-23 Isomer 2, ethyl 2-[4-(1,3-oxazol-2-yl)piperidin-1-yl]-6-azaspiro[3.4]octane-6-carboxylate], the EC50 in test [1] (setting [5]) was 398 nM; in test [2] (setting [6]) it was 31.6 nM; in test [3] (setting [7]), greater than 20000 nM; in test [4], greater than 20000 nM. The Emax in test [1] stood at 55%; in test [2] it was 105%; in test [3], 9%; in test [4] (relative to ACh) it was 7%.

Usually Emax stands for the maximal effect, on the per cent scale that the assay sets.
